Source: ChEMBL document CHEMBL1201862, “PubChem BioAssay data set” (2004)
Active and inactive are the calls of the source.

Legend:
Vero = assay: cells; assay type: functional; settings: Chlorocebus sabaeus
[1] = target: T1, Type-1 angiotensin II receptor (Homo sapiens, UniProt P30556); assay: AT1 receptor antagonists, dose response, selectivity assay for APJ receptor antagonist project, cell-based, uHTS hits (AID 463214); assay type: functional;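 note: antagonist potency against angiotensin II stimulated AT1 response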
T1 sequence (P30556 whole entry): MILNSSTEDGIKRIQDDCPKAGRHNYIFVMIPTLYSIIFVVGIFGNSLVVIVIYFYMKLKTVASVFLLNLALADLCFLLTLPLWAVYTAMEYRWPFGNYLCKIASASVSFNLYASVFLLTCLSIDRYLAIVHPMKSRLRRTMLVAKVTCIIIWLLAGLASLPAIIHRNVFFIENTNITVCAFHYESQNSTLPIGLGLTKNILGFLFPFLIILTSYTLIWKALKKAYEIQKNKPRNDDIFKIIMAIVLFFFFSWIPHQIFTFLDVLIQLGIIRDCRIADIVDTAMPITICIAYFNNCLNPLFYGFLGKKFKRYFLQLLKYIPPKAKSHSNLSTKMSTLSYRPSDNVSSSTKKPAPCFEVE

Beta-galactosidase = Beta-galactosidase (Escherichia coli, UniProt Q8VNN2); assay: PubChem AID 485352; assay type: functional
Sequence of Beta-galactosidase (Q8VNN2 whole entry): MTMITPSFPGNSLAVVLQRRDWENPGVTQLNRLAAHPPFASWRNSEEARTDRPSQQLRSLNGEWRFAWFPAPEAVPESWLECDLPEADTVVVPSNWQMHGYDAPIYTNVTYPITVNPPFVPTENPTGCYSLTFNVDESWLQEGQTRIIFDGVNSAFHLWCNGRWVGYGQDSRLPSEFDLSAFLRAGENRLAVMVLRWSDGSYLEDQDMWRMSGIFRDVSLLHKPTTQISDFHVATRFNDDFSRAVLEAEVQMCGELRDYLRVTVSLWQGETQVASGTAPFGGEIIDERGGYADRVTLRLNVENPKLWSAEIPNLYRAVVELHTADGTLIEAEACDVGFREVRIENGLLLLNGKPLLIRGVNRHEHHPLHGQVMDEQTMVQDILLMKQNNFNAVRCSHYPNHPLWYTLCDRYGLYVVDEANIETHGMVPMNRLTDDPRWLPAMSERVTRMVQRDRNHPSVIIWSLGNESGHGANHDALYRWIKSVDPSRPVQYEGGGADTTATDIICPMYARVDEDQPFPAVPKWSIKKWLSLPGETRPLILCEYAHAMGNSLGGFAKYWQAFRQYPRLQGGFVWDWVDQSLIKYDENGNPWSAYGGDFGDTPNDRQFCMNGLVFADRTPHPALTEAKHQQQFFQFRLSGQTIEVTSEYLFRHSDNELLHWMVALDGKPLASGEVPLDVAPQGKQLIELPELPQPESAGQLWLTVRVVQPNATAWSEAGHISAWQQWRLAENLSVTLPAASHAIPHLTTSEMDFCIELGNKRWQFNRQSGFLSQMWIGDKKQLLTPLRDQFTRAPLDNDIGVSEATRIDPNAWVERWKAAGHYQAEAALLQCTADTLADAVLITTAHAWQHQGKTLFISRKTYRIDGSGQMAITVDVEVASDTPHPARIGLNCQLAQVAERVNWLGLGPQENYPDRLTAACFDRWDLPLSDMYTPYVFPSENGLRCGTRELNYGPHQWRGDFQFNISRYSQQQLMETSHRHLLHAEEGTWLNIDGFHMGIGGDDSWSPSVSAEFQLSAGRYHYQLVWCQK

Genome polyprotein = Genome polyprotein (dengue virus type 2, UniProt P29990); assay: Dengue-2 NS5 methyltransferase inhibitors, primary screen, biochemical, confirmation dose response (AID 588689); assay type: functional
Sequence of Genome polyprotein (P29990 2492-3391 limits assumed): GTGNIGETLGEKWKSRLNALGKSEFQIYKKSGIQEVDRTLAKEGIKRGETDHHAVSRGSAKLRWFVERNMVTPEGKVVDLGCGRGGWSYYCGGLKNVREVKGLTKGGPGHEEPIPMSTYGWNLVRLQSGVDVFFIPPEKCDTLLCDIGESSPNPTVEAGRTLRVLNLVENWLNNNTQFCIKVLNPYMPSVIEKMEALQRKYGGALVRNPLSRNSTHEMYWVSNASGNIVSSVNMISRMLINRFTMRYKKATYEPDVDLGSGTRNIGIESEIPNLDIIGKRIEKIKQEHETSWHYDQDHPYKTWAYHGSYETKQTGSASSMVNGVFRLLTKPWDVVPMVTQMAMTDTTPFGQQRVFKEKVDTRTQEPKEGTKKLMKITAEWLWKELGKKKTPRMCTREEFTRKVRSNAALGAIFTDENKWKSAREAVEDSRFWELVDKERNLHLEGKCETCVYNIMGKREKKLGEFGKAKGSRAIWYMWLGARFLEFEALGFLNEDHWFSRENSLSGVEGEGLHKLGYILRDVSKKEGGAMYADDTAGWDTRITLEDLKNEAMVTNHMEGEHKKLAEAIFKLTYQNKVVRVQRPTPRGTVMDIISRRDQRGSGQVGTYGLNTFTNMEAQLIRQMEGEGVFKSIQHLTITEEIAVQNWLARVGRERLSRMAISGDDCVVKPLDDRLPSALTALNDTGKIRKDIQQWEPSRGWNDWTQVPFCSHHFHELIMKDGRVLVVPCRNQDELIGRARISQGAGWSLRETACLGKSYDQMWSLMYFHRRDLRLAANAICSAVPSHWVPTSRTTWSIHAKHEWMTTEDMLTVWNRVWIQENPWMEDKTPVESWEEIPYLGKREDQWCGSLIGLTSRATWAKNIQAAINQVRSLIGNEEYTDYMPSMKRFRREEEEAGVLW

Aminopeptidase N = target: T2, Aminopeptidase N (Plasmodium falciparum FcB1/Columbia, UniProt O96935); assay: P. falciparum M1AAP inhibitors, biochemical, fluorogenic H-Leu-NHMec substrate, 1536-well (AID 1445); set-up: species or system Plasmodium falciparum 3D7, 3D7
T2 sequence (O96935 whole entry): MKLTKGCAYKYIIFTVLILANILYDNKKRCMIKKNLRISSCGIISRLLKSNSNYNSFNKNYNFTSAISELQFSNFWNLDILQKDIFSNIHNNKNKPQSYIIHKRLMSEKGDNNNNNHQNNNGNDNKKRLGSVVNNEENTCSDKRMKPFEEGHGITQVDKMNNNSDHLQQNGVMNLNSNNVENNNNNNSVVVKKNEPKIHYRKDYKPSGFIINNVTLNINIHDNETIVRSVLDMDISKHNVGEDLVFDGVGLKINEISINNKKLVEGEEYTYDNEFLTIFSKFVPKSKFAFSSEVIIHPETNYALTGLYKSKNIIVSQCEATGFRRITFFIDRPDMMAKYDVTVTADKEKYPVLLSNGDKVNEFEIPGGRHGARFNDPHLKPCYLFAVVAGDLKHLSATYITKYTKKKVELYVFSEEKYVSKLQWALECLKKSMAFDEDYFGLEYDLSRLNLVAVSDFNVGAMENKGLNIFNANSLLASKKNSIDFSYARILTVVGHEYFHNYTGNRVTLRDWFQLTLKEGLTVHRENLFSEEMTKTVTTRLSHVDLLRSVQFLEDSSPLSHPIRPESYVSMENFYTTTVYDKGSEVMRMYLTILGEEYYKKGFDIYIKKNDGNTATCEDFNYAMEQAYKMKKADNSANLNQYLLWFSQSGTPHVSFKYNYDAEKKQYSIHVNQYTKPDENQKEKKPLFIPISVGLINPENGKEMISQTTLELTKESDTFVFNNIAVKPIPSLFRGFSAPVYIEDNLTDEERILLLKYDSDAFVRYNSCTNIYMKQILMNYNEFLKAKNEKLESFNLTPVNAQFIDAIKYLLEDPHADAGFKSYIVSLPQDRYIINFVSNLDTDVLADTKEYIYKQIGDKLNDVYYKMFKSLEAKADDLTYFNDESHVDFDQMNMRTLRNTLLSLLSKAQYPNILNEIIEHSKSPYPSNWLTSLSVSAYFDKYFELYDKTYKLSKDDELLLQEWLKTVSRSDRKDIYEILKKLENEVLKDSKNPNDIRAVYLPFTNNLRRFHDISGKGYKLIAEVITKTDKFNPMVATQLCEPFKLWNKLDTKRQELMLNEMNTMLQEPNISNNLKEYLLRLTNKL

Streptococcus = assay: Group A Streptococcus viability loss, dose response, counter-screen for streptokinase expression inhibitor project, luminescence, BacTiterGlo (AID 1915); assay type: functional, organism-based;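 note: potency for reduction of bacterial viability or growth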
[2] = inhibitors of SNCA 5'UTR-driven reporter translation, confirmation, H4 neuroglioma cells, luminescence (AID 1988); assay type: functional, cell-based
[3] = cytotoxicity toward NIH3T3 fibroblasts, dose response, counter-screen, cell-based, ATP luminescence, mouse fibroblasts (AID 2010); assay type: functional;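 note: cells exposed to compound for about 90 hours before reading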
[4] = inhibitors of intracellular T. cruzi replication, confirmation, NIH3T3 host cells, beta-gal luminescence (AID 2044); assay type: functional, cell-based;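 note: intracellular parasites grown in NIH/3T3 mouse fibroblasts as host cells; luminescent beta-galactosidase reporter signal from transgenic T. cruzi replicating inside host cells; inhibitors lower the luminescence signal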
[5] = system: Streptococcus sp. 'group A'; assay: growth inhibition of control SK(-) GAS strain, dose response, counter-screen for streptokinase expression inhibitor project, luminescence, kanamycin, BacTiterGlo, confirmation (AID 1900); assay type: functional, organism-based
[6] = inhibitors of firefly luciferase expression or activity, dose response, H4 neuroglioma cells, luminescence (AID 1990); assay type: functional, cell-based
[7] = Luminescence Cell-Based Dose Response HTS to Identify Inhibitors of 5'UTR Stem-Loop Driven Prion Protein mRNA Translation in H4 Neuroglioblastoma Cells. [Related pubchem assays: 1827 (Project Summary), 1813 (Primary HTS)]; assay type: functional
Fatty acid synthase [8] = target: T3, Fatty acid synthase (Homo sapiens, UniProt P49327); assay: FAS thioesterase domain inhibitors, dose response, biochemical, endpoint fluorescence intensity, uHTS hits (AID 624327); assay type: functional;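 note: fluorescence from hydrolysis of an O-methyl fluorescein acyl ester substrate by the enzyme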
T3 sequence (P49327 whole entry, the tested form may be a part): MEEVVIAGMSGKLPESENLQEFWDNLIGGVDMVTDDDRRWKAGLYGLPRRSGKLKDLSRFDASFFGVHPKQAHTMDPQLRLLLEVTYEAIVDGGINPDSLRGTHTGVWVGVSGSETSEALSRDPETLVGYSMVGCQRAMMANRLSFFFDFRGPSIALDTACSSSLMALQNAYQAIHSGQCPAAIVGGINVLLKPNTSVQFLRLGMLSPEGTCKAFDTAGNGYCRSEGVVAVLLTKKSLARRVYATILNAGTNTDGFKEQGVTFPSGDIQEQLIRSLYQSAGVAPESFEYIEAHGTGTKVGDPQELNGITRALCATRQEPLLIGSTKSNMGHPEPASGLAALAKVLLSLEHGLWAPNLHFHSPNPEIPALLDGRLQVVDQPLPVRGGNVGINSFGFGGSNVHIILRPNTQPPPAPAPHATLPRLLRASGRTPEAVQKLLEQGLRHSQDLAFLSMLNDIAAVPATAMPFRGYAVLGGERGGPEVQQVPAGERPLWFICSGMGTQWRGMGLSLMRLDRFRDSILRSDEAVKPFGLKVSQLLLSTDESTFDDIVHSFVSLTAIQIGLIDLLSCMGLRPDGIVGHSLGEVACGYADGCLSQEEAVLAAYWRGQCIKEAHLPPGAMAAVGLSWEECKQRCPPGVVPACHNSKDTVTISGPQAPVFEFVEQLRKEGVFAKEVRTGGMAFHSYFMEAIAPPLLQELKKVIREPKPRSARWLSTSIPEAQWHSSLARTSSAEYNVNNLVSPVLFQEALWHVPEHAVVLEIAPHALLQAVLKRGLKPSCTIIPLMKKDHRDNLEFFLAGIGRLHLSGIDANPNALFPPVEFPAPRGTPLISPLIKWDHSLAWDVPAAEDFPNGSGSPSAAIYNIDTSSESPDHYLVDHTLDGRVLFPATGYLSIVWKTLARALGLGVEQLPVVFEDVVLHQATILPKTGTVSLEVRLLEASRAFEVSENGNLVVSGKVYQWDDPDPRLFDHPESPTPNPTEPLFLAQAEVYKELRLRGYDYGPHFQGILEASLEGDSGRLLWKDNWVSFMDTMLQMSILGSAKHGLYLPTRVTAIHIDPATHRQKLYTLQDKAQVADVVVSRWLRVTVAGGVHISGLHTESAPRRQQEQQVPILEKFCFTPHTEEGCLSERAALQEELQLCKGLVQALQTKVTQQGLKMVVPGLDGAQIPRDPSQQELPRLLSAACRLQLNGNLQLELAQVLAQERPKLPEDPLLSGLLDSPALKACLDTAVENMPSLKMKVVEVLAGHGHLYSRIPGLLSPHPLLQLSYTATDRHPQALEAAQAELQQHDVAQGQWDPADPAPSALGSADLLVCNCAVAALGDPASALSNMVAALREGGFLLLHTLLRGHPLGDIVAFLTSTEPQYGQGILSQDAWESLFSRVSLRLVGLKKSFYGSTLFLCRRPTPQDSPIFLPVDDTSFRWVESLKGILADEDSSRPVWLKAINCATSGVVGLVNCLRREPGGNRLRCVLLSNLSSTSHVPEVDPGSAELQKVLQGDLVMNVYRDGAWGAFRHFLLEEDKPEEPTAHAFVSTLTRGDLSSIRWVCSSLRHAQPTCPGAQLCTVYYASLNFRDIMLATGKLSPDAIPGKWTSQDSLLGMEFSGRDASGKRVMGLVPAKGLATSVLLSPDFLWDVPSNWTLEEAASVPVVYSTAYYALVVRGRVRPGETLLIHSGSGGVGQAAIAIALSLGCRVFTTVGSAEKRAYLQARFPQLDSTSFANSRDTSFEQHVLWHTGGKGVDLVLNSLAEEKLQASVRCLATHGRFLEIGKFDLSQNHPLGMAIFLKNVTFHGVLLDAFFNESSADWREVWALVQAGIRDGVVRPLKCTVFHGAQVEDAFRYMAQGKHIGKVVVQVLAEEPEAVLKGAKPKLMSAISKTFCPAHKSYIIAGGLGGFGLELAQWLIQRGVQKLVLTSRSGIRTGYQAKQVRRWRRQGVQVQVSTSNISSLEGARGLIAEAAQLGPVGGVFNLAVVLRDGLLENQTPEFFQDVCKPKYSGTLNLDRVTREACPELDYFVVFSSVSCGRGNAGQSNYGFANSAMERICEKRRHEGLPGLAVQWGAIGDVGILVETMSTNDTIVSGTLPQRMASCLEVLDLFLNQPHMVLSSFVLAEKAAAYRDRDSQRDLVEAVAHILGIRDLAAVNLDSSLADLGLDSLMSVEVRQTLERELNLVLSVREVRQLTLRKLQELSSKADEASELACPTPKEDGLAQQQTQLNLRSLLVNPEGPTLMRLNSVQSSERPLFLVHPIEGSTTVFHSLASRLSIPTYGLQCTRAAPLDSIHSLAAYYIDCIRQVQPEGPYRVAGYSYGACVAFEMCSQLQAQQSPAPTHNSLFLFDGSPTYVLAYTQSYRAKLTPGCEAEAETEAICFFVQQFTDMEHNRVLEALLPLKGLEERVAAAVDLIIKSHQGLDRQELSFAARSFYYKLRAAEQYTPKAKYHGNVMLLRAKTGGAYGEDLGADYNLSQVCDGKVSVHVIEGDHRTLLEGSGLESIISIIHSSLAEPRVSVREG

Fatty acid synthase [9] = target: T3, Fatty acid synthase; assay: FAS thioesterase domain inhibitors, dose response, biochemical, kinetic fluorescence intensity (AID 624326); assay type: functional;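 note: rate of fluorescence rise from hydrolysis of a fluorogenic O-methyl fluorescein ester substrate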
[10] = target: T4, Calpain-2 catalytic subunit (Sus scrofa, UniProt P43367); assay: pig calpain II inhibitor potency, dose response, biochemical, fluorogenic peptide substrate (AID 1420); assay type: functional
T4 sequence (P43367 whole entry): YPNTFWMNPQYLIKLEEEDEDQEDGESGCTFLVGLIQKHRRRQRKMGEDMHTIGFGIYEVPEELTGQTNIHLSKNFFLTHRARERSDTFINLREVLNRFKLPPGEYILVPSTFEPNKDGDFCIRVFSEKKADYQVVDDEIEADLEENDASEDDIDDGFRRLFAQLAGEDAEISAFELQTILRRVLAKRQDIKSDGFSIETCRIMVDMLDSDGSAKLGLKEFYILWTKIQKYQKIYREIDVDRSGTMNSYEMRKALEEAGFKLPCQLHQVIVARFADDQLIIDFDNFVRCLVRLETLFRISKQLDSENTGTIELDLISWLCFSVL

[11] = target: T5, Microphthalmia-associated transcription factor (Homo sapiens, UniProt O75030); assay: TRPM1 promoter luciferase signal decrease, dose response, MITF inhibitor project, cell-based, SK-MEL-5, cherry-picked, set 3 (AID 493073); assay type: functional
T5 sequence (O75030 whole entry): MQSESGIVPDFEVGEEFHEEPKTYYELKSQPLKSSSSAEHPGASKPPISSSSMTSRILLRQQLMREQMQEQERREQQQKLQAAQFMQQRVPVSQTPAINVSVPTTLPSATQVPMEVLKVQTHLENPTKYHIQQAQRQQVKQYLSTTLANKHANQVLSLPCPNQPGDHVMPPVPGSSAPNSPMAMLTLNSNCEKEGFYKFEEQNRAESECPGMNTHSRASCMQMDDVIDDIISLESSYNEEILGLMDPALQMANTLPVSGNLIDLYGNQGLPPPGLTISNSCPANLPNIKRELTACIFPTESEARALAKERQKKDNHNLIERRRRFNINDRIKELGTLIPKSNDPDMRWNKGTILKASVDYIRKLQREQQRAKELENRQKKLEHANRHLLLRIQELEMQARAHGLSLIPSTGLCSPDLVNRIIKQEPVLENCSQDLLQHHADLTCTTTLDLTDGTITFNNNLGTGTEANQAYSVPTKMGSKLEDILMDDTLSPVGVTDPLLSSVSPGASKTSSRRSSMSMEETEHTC

Coagulation factor XII = target: T6, Coagulation factor XII (Homo sapiens, UniProt P00748); assay type: functional;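 note: activated factor XIIa alpha cleaving a fluorogenic AMC peptide substrate; inhibitor potency from loss of enzyme activity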
T6 sequence (P00748 whole entry): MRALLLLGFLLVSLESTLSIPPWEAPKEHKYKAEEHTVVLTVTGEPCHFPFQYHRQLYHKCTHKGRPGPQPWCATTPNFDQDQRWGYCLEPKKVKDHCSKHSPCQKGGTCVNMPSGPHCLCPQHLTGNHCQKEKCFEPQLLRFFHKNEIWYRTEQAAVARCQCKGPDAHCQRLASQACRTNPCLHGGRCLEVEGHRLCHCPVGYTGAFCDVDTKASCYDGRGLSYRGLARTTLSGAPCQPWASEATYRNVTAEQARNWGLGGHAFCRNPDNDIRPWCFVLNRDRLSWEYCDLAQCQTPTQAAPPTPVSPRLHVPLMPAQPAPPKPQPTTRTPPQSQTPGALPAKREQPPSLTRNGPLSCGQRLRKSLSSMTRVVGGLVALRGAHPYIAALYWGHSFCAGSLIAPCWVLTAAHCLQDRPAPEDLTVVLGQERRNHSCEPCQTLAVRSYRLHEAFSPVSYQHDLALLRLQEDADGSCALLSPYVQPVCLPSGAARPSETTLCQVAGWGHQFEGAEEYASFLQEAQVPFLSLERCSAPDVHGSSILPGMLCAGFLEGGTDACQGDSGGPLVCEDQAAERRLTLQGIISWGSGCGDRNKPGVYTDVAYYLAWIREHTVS

**Q.** For `CN(C)CC1CCC/C(=C\c2ccc(OC(=O)/C=C/c3ccccc3)cc2)C1=O` (stereo not given), which CC50 (Vero) is on record?
**A.** > 25 µM (active)

**Q.** What does the source list for `COc1ccc(C(=O)NC(=S)Nc2nnn(C)n2)cc1`?
**A.** IC50 [1]: > 40 µM (not active); EC50 (Beta-galactosidase): > 40 µM (inactive)

**Q.** What does the source list for `COc1ccccc1/C=C1\SC(=S)N(C(C(=O)O)c2ccccc2)C1=O` (stereo not given)?
**A.** IC50 (Genome polyprotein): 39.1 µM (active); IC50 (Aminopeptidase N): 26 µM (active)

**Q.** For `CC(C)(C)c1cc(Cl)c(O)c(NC(=S)NC(=O)c2cccnc2)c1`, which IC50 [1] is on record?
**A.** 22.2 µM (not active)

**Q.** And the EC50 (Streptococcus)?
**A.** 6.42 µM (active)

**Q.** What about the EC50 [2] of the same compound?
**A.** > 120 µM (not active)

**Q.** What about the EC50 [3] of the same compound?
**A.** 6.97 µM (active)

**Q.** And the EC50 [4]?
**A.** 2.56 µM (active)

**Q.** And the EC50 [5]?
**A.** 0.448 µM (active)

**Q.** And the EC50 (Beta-galactosidase)?
**A.** > 40 µM (inactive)

**Q.** And the EC50 [6]?
**A.** 16.5 µM (active)

**Q.** And the EC50 [7]?
**A.** 15 µM (active)

**Q.** What does the source list for `CCOc1cc(/C=C(/C#N)c2ccc(Cl)cc2)cc(Cl)c1OCC(=O)O`?
**A.** IC50 (Fatty acid synthase [8]): 6.78 µM (active); IC50 (Genome polyprotein): 34.5 µM (active); IC50 (Fatty acid synthase [9]): 10.4 µM (active); IC50 [10]: 3.06 µM (not active); AC50 [11]: 5.61 µM (active)

**Q.** With `CC(C)c1ccc(O)c(NC(=S)NC(=O)c2cccnc2)c1` as the compound, how does the IC50 [1] read?
**A.** 23.2 µM (not active)

**Q.** What about the IC50 (Coagulation factor XII) of the same compound?
**A.** > 50 µM (inactive)

**Q.** And the EC50 (Beta-galactosidase)?
**A.** > 40 µM (inactive)

**Q.** With `C=C1C(=O)OC2CC3(C)OC3CCC(C)=CC(OC(C)=O)C12` (stereo not given) as the compound, how does the CC50 (Vero) read?
**A.** 23.8 µM (active)

**Q.** For `OCCN1C[C@H](O)[C@@H](O)[C@H](O)[C@H]1CO` [MIGLITOL], which IC50 [1] is on record?
**A.** > 40 µM (not active)

**Q.** What about the EC50 (Beta-galactosidase) of the same compound?
**A.** > 40 µM (inactive)
